Read-outs that look alike come from different tables or passages of the source. Where no end group is shown, it is not given here.
Columns and labels:
RAW 264.7 cells = assay: Cytokine levels of RAW 264.7 cells after treatment with LPS (ELISA), with or without pathway inhibitor; format: cell-based, mouse; conditions: 1 h pre-treatment, LPS 1 μg/ml, 16 h, n = 6
Procedure: RAW 264.7 cells and RAW 264.7 cells stably expressing PBD-2 were pre-treated with S. Typhimurium at MOI = 10:1 for 1 h or with LPS (1 μg/ml) for 16 h, washed with PBS twice and incubated with RPMI 1640 that contained PBS or PBD-2 (10 μg/mL) for 16 h. RAW 264.7 cells stably expressing PBD-2 were maintained in RPMI 1640 that contained PBS for 16 h (n = 6 for each group). The expression levels of proinflammatory cytokines in the cell culture supernatant were determined through ELISA in accordance with the manufacturer's instruction.
In the inhibition assay, RAW 264.7 cells were pre-treated with 4 μg/ml NF-κB inhibitor (Celastrol, # ant-cls, InvivoGen®, San Diego, CA, USA) or 1 μg/ml TLR4 inhibitor (CLI-095, # tlrl-cli95, InvivoGen®, San Diego, CA, USA) for 1 h. Subsequently, RAW 264.7 cells were treated with LPS (1 μg/ml) alone or together with PBD-2 (10 μg/mL) for 16 h (n = 6 each group). RAW 264.7 cells treated with PBS were used as control. The levels of the cytokines in the supernatant of the cells were detected through ELISA.

[1] = test system: release of inflammatory cytokines; conditions: cited from earlier work
Excerpt: Bacterial drug resistance has become a global concern. Endeavors in search for antibiotic substitutes are desperately needed. Antimicrobial peptides (AMPs) are natural anti-infective agents identified in various species and implicated in innate immunity ([1]). […] AMPs not only have a direct bactericidal activity but also regulate immune and inflammatory responses ([3]). As bactericides, cationic AMPs exert bactericidal act ... || The colitis caused by S. Typhimurium mainly results from intestinal mucosal inflammation after the breakage of intestinal epithelial barrier by pathogens ([26]).

[2] = cited from earlier work
Excerpt: (§1) The mechanism of how AMPs modulate immune signaling pathways has yet to be fully understood. […] Instead, it interacted with TLR4. […] Therefore, th ...

TLR3 = TLR3 ligand poly (I:C); ref [6]; cited from earlier work
Excerpt: as §1

NF-κB = NF-κB promoter activity, luciferase reporter assay in RAW 264.7 cells; format: cell-based, mouse; conditions: CLI-095 1 μg/ml, 1 h pre-treatment; LPS 1 μg/ml, 24 h; n = 6
Procedure: A luciferase reporter assay was used to detect the promoter activity of NF-κB. RAW 264.7 cells were seeded in a 24-well plate for 24 h and then cotransfected with 800 ng/well of the NF-κB reporter plasmid (pGL3-Basic) and 20 ng/well of pLR-TK. WT […] luciferase (Rluc) served as the reporter gene control vector. […] In the inhibition assay, the cells were pre-treated with 1 μg/ml TLR4 inhibitor for 1 h and treated with LPS (1 μg/ml) alone or together with PBD-2 (10 μg/mL) for 24 h (n = 6 each group). Luciferase units were detected to show the promoter activity of NF-κB ([28]).

[3] = cited from earlier work; remark: listed apart in the source
Excerpt: (§2) The antibiotic resistance of pathogenic bacteria has become a global threat ([30]). Defensins are natural peptides secreted by many species and implicated in resisting bacterial infection ([31]). PBD-2 is one of the defensins expressed in pigs. […] The invasion of S. Typhimurium can increase the expression of PBD-2 in porcine epithelial cells ([32]). […] PBD-2 also improves the growth perf ...

[4] = test system: intestinal epithelial cells; conditions: cells transfected with genes encoding hBD-2 and hBD-3, infected with S. Typhimurium; vs untransfected; ref [44]; cited from earlier work
Excerpt: The colitis caused by S. Typhimurium mainly results from intestinal mucosal inflammation after the breakage of intestinal epithelial barrier by pathogens ([26]).

TLR1 = conditions: ref [50]; cited from earlier work
Excerpt: as §1

TLR2 = conditions: ref [50]; cited from earlier work
Excerpt: as §1

[5] = test system: signaling pathways downstream of TLR4; conditions: MyD88-dependent and MyD88-independent pathways; ref [50]; cited from earlier work
Excerpt: as §1

Bordetella pertussis = conditions: pigs; ref [35]; cited from earlier work
Excerpt: as §2

[6] = target: T1, TLR4, purified recombinant protein (Cloud-clone # RPA753Mu01) (UniProt Q9QUK6 26-638); assay: ITC; Nano-ITC, 25°C; PBD-2 in the syringe (0.215 mM), TLR4 in the calorimeter cell (0.016 to 0.050 mM); control: PBD-2 into PBS; conditions: both partners purified
T1 construct: Toll-like receptor 4 (TLR4), bought recombinant protein; the vendor's data sheet is needed; also called purified TLR4; source: bought: Cloud-clone (# RPA753Mu01)
T1 sequence (looked up): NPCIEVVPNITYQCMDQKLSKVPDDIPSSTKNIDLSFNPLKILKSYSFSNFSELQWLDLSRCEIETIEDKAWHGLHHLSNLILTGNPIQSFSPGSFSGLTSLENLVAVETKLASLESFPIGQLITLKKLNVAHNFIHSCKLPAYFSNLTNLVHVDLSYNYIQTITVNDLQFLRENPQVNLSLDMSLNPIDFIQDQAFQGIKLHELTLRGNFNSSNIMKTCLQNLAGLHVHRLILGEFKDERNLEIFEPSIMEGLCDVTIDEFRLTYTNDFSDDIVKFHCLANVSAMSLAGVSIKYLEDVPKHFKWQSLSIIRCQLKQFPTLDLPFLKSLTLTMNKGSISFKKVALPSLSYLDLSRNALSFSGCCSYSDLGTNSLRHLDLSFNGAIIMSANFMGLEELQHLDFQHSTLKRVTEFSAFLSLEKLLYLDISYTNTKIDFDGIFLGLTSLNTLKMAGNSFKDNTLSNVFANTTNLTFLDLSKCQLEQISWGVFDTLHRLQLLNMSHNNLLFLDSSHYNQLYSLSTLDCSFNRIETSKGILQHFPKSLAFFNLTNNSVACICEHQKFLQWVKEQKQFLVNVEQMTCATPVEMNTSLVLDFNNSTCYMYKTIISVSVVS

In the case of `CC1=C(O)C(=O)C=C2C1=CC=C1[C@@]2(C)CC[C@@]2(C)[C@@H]3C[C@](C)(C(=O)O)CC[C@]3(C)CC[C@]12C` [NF-κB inhibitor, Celastrol, reference compound], the “secretion of IL-1β triggered by LPS” value (RAW 264.7 cells; Celastrol 4 μg/ml) is reported as “significantly reduced the secretion of TNF-α, IL-6, and IL-1β triggered by LPS”, the “secretion of IL-6 triggered by LPS” value (RAW 264.7 cells; Celastrol 4 μg/ml) is reported as “significantly reduced the secretion of TNF-α, IL-6, and IL-1β triggered by LPS” and the “secretion of TNF-α triggered by LPS” value (RAW 264.7 cells; Celastrol 4 μg/ml) is reported as “significantly reduced the secretion of TNF-α, IL-6, and IL-1β triggered by LPS”.

For “LL-37: human AMP (LLGDFFRKSKEKIGKEFKRIVQRIKDFLRNLVPRTES; Antibacterial peptide LL-37; UniProt P49913 134-170, looked up)”, the “release of inflammatory cytokines” value ([1]; ref [5]) is given as “suppress the release of inflammatory cytokines”, the suppression of inflammation ([1]; ref [6]) is given as “can suppress inflammation by inhibiting specific inflammatory signaling pathways” and the anti-endotoxin ability ([2]; ref [48]) is given as “exert anti-endotoxin abilities by either disrupting LPS or inhibiting the LPS-induced production of TNF-α”. For the same molecule, the TLR3-dependent immune responses (TLR3) was “TLR3-dependent immune responses are blocked by LL-37”.

For `CCOC(=O)C1=CCCC[C@H]1S(=O)(=O)Nc1ccc(F)cc1Cl` [TLR4 inhibitor, reference compound], the “secretion of IL-1β triggered by LPS” value (RAW 264.7 cells; CLI-095 1 μg/ml) was “significantly reduced the secretion of TNF-α, IL-6, and IL-1β triggered by LPS”, the “secretion of IL-6 triggered by LPS” value (RAW 264.7 cells; CLI-095 1 μg/ml) was “significantly reduced the secretion of TNF-α, IL-6, and IL-1β triggered by LPS” and the “secretion of TNF-α triggered by LPS” value (RAW 264.7 cells; CLI-095 1 μg/ml) was “significantly reduced the secretion of TNF-α, IL-6, and IL-1β triggered by LPS”. For the same molecule, the “LPS-induced NF-κB promoter activity, TLR4 inhibitor” value (NF-κB) was “inhibited the LPS-induced promoter activity of NF-κB in RAW 264.7”.

In the case of PR39, the anti-endotoxin ability ([2]; ref [49]) is given as “exert anti-endotoxin abilities by either disrupting LPS or inhibiting the LPS-induced production of TNF-α”.

In the case of “rMBD3: β-defensin 3 (rMBD3) of mice (KKINNPVSCLRKGGRCWNRCIGNTRQIGSCGVPFLKCCKRK; ends and bridges not checked; cysteine pairing not given here; UniProt Q9WTL0 23-63, looked up)”, the “antibacterial effects in vivo” value ([3]; mice, ref [37]) is listed as “have antibacterial effects in vivo”.

In the case of “hBD-2: β-defensin of human (GIGDPVTCLKSGAICHPVFCPRRYKQIGTCGLPGTKCCKKP; ends and bridges not checked; cysteine pairing not given here; UniProt O15263 24-64, looked up)”, the “expression level of proinflammatory cytokines” value [4] is given as “decreased expression level of proinflammatory cytokines” and the “antibacterial effects in vivo” value ([3]; ref [36]) is given as “have antibacterial effects in vivo”.

In the case of “hBD3: human β-defensin 3 (GIINTLQKYYCRVRGGRCAVLSCLPKEEQIGKCSTRGRKCCRRKK; ends and bridges not checked; cysteine pairing not given here; UniProt P81534 23-67, looked up)”, the suppression of inflammation ([1]; ref [7]) is given as “can suppress inflammation by inhibiting specific inflammatory signaling pathways”, the “TNF-α and IL-6 secretion” value ([1]; ref [43]) is given as “suppressing TNF-α and IL-6 secretion” and the “expression level of proinflammatory cytokines” value [4] is given as “decreased expression level of proinflammatory cytokines”. For the same molecule, the “interaction with TLR1” value (TLR1) was “can interact with TLR1 and TLR2, leading to the activation of the MyD88-dependent pathway”, the “binding to LPS” value ([2]; ref [50]) was “does not bind to LPS” and the “interaction with TLR2” value (TLR2) was “can interact with TLR1 and TLR2, leading to the activation of the MyD88-dependent pathway”. For the same molecule, the LPS-induced inflammation [5] was “could inhibit the LPS-induced inflammation by repressing the signaling pathways downstream of TLR4”.

For “hBD-1: β-defensin of human (DHYNCVSSGGQCLYSACPIFTKIQGTCYRGKAKCCK; ends and bridges not checked; cysteine pairing not given here; UniProt P60022 33-68, looked up)”, the “antibacterial effects in vivo” value ([3]; ref [36]) is given as “have antibacterial effects in vivo”.

In the case of “Porcine beta-defensin 1: another defensin from pigs and homolog of human beta-defensin 2 (NIGNSVSCLRNKGVCMPGKCAPKMKQIGTCGMPQVKCCKRK; ends and bridges not checked; cysteine pairing not given here; UniProt O62697 24-64, looked up)”, the “protection against Bordetella pertussis infection” value (Bordetella pertussis) is given as “protects against Bordetella pertussis infection in pigs”.

B1: Porcine beta-defensin 2 (PBD-2), synthetic mature peptide (peptide)
peptide: DHYICAKKGGTCNFSPCPLFNRIEGTCYSGKAKCCIR
modifications: ends and bridges not checked; cysteine pairing not given here
notes: mature peptide of porcine beta-defensin 2 (PBD-2), pig; also called synthetic PBD-2; source: synthetic peptide (Neweast Biosciences, # 60001)
B1 showed a Kd [6] of 3.75 µM.

Reference: paper PMC6657668, “Porcine Beta-Defensin 2 Provides Protection Against Bacterial Infection by a Direct Bactericidal Activity and Alleviates Inflammation via Interference With the TLR4/NF-κB Pathway” (Frontiers in Immunology, 2019)
